The results in this text go back to patent US10265376B2, “Use of chelating agent and peptide antimicrobial compounds” (Consumo Em Verde Biotecnologia Das Plantas, S.A., priority 2010, dated 2019).

Assay [1] concerns Streptomyces griseus. Kind of assay: MIC of BLAD and EDTA against Streptomyces griseus. The class given is cell-based. As to conditions: EDTA alone.
The subject of assay [2] is Fusarium oxysporum. The assay can be described thus: Inhibition halo for BLAD with and without EDTA against Fusarium oxysporum on Potato Dextrose Agar. The class given is cell-based. As for the experimental part:
Inhibition Halo Data for BLAD with and without EDTA Against Fusarium oxysporum on Potato Dextrose Agar (PDA) at 1.2% w/v of Agar (Incubation 3 Days at 25° C.): […]

The subject of assay [3] is Erwinia pirsicina. Kind of assay: MIC of BLAD and EDTA against Erwinia pirsicina. In kind it is cell-based. The conditions noted are these: EDTA alone.
The subject of assay [4] is Botrytis cinerea. The assay can be described thus: Inhibition halo for BLAD with and without EDTA against Botrytis cinerea on Potato Dextrose Agar. The class given is cell-based. As to the method: Inhibition Halo Data for BLAD with and without EDTA Against Botrytis cinerea on Potato Dextrose Agar (PDA) at 1.2% w/v of Agar (Incubation 3 Days at 25° C.): […]
Assay [5] deals with P. aeruginosa. The assay can be described thus: Bacteriostatic/bactericidal activity of BLAD, EDTA and their combination against P. aeruginosa. In kind it is cell-based, Pseudomonas aeruginosa. The conditions noted are these: EDTA at 1 mg/ml alone.
The mark [6] stands for this setting: EDTA 50 mM alone, PDA 1.2% w/v agar, 3 days at 25° C.
The mark [7] stands for this setting: EDTA 50 mM alone, individual replicates, PDA 1.2% w/v agar, 3 days at 25° C.

For `O=C(O)CN(CCN(CC(=O)O)CC(=O)O)CC(=O)O` [EDTA, ethylenediaminetetraacetic acid], the MIC – broadly, the lowest concentration that inhibits growth of the organism – came out at 16 mM in assay [1] and 15 mM in assay [3]. Further, the “Average inhibition halo diameter” value in assay [2] (setting [6]) and in assay [4] (setting [6]) was 0 mm in each case. The Inhibition halo diameter in assay [2] (setting [7]) and in assay [4] (setting [7]) was 0 mm in each case. Also, the “growth inhibition (in words)” value in assay [2] (EDTA alone at 50 mM) and in assay [4] (EDTA alone at 50 mM) was “No growth inhibition” each time. For the same molecule, in assay [5], the effect on growth entry is on record as “inhibits growth”.
